Results published in PMC6863902, “Functional and structural basis of E. coli enolase inhibition by SF2312: a mimic of the carbanion intermediate” (Scientific Reports, 2019).
Where “and” joins values, the source holds several entries; their conditions need not be identical. Identical values can stand only once. Like-named read-outs stand apart in the source and are kept apart here.

Tests used:
[1] = molecular target: T1, recombinant E. coli enolase (Escherichia coli, UniProt P0A6P9); assay: Differential scanning calorimetry thermal unfolding of enolase with inhibitors; format: binding; conditions: for protein thermal melting point (Tm): enolase 6 μM with ligand 60 μM, apo enolase 52.7 °C; for shift of thermal melting point: versus enolase without inhibitor (∼53 °C)
T1 construct: made in house
T1 sequence (P0A6P9 whole entry): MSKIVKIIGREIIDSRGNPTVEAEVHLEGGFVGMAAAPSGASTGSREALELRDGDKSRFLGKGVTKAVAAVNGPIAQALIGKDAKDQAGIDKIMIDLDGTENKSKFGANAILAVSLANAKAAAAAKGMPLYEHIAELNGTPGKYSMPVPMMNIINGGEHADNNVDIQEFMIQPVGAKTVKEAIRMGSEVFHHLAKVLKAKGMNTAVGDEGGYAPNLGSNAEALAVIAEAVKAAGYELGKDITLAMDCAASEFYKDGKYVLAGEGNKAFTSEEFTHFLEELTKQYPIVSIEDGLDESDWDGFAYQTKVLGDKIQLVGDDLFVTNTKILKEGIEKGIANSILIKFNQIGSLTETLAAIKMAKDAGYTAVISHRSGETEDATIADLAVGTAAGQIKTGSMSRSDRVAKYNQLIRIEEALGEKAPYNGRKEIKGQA
Experimental: We used differential scanning calorimetry to analyze the direct in vitro binding of SF2312 and KSF to recombinant E. coli enolase (see Fig. 3). […] Upon overnight treatment with SF2312, the protein thermal melting point was ~82 °C, a shift of ∼29 °C.
The DCS experiment was performed as described previously. Prior to analysis, purified E. coli enolase was buffer exchanged into 20 mM HEPES (pH 7.0), 50 mM NaCl and 2 mM MgCl2. The concentrations of protein and ligand were adjusted to 6 μM and 60 μM, respectively. Protein samples with and without ligand were heated from 0–120 °C at 1 °C/min using a NanoDSC instrument (TA instruments). The samples were degassed for 15 minutes prior to injection into the calorimeter cell. The reference cell was filled with buffer for all runs. A pressure of 3 atm was applied to both cells during the run. The excess heat capacity scans for the protein transitions were obtained by subtracting a control scan of buffer versus buffer. The data were corrected for the difference in heat capacity between the initial and the final state by using a sigmoid baseline in the NanoAnalyze software (TA instruments) and a two-state transition model was used to determine the denaturation temperature (Tm) (Fig. 3).

[2] = molecular target: T1, recombinant E. coli enolase; assay: E. coli enolase enzymatic inhibition assay (PEP absorbance at 240 nm); format: biochemical; conditions: for IC50: enolase 40 nM, 0.5 mM 2-PGA, 25 °C; for Ki: from IC50 by Cheng-Prusoff equation and KM
Experimental: To assess the relative affinity of SF2312 and KSF for enolase, the inhibitory constant, Ki, was determined from IC50 values using the Cheng-Prusoff equation and KM values.
The activity and inhibition of E. coli enolase described in this study was carried out using the procedure as we previously reported. Briefly, enolase activity was measured at 25 °C in the forward (formation of PEP from 2‐PGA) direction by direct monitoring of the increase in PEP absorbance at 240 nm, using a DU 640 spectrophotometer (Beckman). The standard assay contained 50 mM Tris pH 8.0, 0.1 M KCl, 0.5 mM 2-PGA and 1 mM MgSO4. The reactions were carried out at a final volume of 500 μL. Initial velocities came from the slopes of linear progress curves of 1 minute duration. One unit of enolase activity was defined as the amount of protein which catalyzes the formation of 1 μmole PEP from 2-PGA in 1 minute. The concentration of PEP was determined using a molar extinction coefficient (Ɛ240nm = 1400 M^−1 cm^1).
Inhibition of enolase activity by SF2312 and its analog, KSF was performed at a constant enolase concentration of 40 nM. The compounds, supplied in water, were preincubated with protein at concentrations ranging from 2 nM to 20 µM for 5 minutes in the assay buffer consisting of 50 mM Tris pH 8.0, 0.1 M KCl and 1 mM MgSO4. The reaction was initiated by the addition of 0.5 mM 2-PGA. The decrease in enolase activity upon inhibition was monitored at 5 second intervals for a period of 5 minutes at λ =240 nm. The average half maximal inhibitory concentrations (IC50) was calculated from initial rates of absorbance increase plotted as a function of ligand concentration using GraphPad Prism software (Fig. 2). Ki values were calculated using the Cheng-Prusoff equation from the experimental IC50 and Km values.

[3] = system: S. aureus ATCC 43300; assay: MIC, microdilution broth assay; format: cell-based; conditions: Staphylococcus aureus
Source text: (§1) To evaluate the activity of SF2312 against Gram-positive and Gram-negative bacteria, we have determined the minimal inhibitory concentration (MIC) for Escherichia coli ATCC 25922, Staphylococcus aureus ATCC […], Pseudomonas aeruginosa ATCC 27853, and Acinetobacter baumannii ATTC 19606 using the microdilution broth assay based on Clinical and Laboratory Standards Institute. Concentrations of SF2312 and the standard antibiotics tested were serially diluted to the following ranges: SF2312, 300 to 0.2 μg/mL; trimethoprim 10 to 0.01 μg/mL and fosfomycin, 20 to 0.040 μg/mL. For synergy studies, using the checkerboard method the following concentration range was used: fosfomycin 10 to 0.156 μg/mL and SF2312 100 to 0.05 μg/mL. The cation-adjusted Mueller-Hinton broth was supplemented with 25 μg/mL glucose-6-phosphate. Growth was monitored at Abs 600 nm. The MIC of each antimicrobial agent alone and in combination was defined as the lowest concentration that inhibited visible growth of the organism and were determined in duplicate.

[4] = system: E. coli ATCC 25922; assay: MIC, microdilution broth assay; format: cell-based; conditions: Escherichia coli
Source text: as §1

[5] = system: A. baumannii ATCC 19606; assay: MIC, microdilution broth assay; format: cell-based, Acinetobacter baumannii
Source text: as §1

[6] = system: E. coli ATCC 25922; assay: Checkerboard synergy of SF2312 with fosfomycin; format: cell-based, Escherichia coli; conditions: for MIC: Escherichia coli; for maximum drop of E. coli MIC when co-administered: SF2312 co-administered with fosfomycin
Experimental: It should be noted that the target of fosfomycin, UDP-N-acetylglucosamine enolpyruvyl transferase (MurA), acts immediately downstream of enolase utilizing PEP in the first step of peptidoglycan synthesis. Since targeting two sequential enzymes in the same metabolic pathway can be a powerful synergistic mechanism for two antibiotics, an evidence for synergy between SF2312 and fosfomycin was assessed by the checkerboard method. […] The observed synergy supports the notion that the antibacterial activity of SF2312 is due to the inhibition of enolase since, fosfomycin is known to have minimal to no effect on the enzymes utilizing PEP, such as enolase.
as §1
The definition of synergy used in these studies was the fractional inhibitory concentration (FIC) index, represented by the formula FIC= (MIC of fosfomycin in combination/MIC of fosfomycin alone) + (MIC of SF2312 in combination/MIC of the SF2312 alone). A calculated FIC index of less than 0.5 represented a synergistic effect (i.e., total effect greater than the sum of the individual antibiotic effects), a value between 0.5–2 represented an additive effect (i.e. no additional contribution from including the second antibiotic, compared with when the first antibiotic. A value greater than 2 represented an antagonistic effect (i.e., total effect less than the sum of the individual effects)[26].

[7] = system: P. aeruginosa ATCC 27853; assay: MIC, microdilution broth assay; format: cell-based, Pseudomonas aeruginosa
Source text: as §1

[8] = system: ENO1-rescued cells; design: method as in earlier work; conditions: isogenic ENO1-rescued glioma cells; ref 5 (Leonard et al.); cited from earlier work
[9] = CAHM media with 25 μg/mL Glucose-6-Phosphate

For O=C1CC(P(=O)(O)O)C(=O)N1O (stereo not drawn) [KSF, (1-hydroxy-2,5-dioxopyrrolidin-3-yl)phosphonic acid], the “protein thermal melting point (Tm)” value [1] was 70.85 °C, the “shift of thermal melting point” value [1] was ~18 °C and the IC50 [2] was 7670 nM and 7700 nM. The Ki [2] was 1400 nM and the “loss in activity between SF2312 and KSF” value ([2]; ratio of IC50 values) was “over 400 fold”.

For O=C1C(P(=O)(O)O)CC(O)N1O (stereo not drawn) [SF2312, 3-Dihydroxyphosphoryl-1-,5-dihydroxy-2-pyrrolidone], the “protein thermal melting point (Tm)” value [1] was ~ 82 °C and 81.75 °C, the “shift of thermal melting point” value [1] was ~29 °C and the MIC ([3]; ATCC43300, CAHM media with 25 μg/mL Glucose-6-Phosphate) was 20 µg/mL. It also gave an MIC ([3]; ATCC43300, CAHM media without Glucose-6-Phosphate) of 100 µg/mL, an MIC ([4]; ATCC25922, CAHM media with 25 μg/mL Glucose-6-Phosphate) of 100 µg/mL and an MIC ([4]; ATCC25922, CAHM media without Glucose-6-Phosphate) of 400 µg/mL. For the same compound, the MIC ([5]; Acinetobacter baumannii, ATCC19606) was > 400 µg/mL, the MIC [5, 9] was >400 µg/mL and the IC50 [2] was 18.4 ± 2.84 nM. For the same compound, the Ki [2] was 3.4 nM, the MIC ([6]; ATCC25922, read-out: MIC alone) was 100 µg/mL and the “maximum drop of E. coli MIC when co-administered” value [6] was 16 fold. The MIC [7, 9] was 50 µg/mL, the MIC ([7]; Pseudomonas aeruginosa, ATCC27853) was 50 µg/mL and the GI50 [8] was > 200000 nM.

Work on C[C@@H]1O[C@@H]1P(=O)(O)O [fosfomycin] yielded an MIC ([3]; ATCC43300, CAHM media with 25 μg/mL Glucose-6-Phosphate, read-out: MIC) of 2.5 µg/mL, an MIC ([3]; ATCC43300, CAHM media without Glucose-6-Phosphate, read-out: MIC) of 20 µg/mL and an MIC ([4]; ATCC25922, CAHM media with 25 μg/mL Glucose-6-Phosphate, read-out: MIC) of 1.25 µg/mL. The MIC ([4]; ATCC25922, CAHM media without Glucose-6-Phosphate, read-out: MIC) was > 10 µg/mL, the MIC ([5]; Acinetobacter baumannii, ATCC19606, CAHM media without Glucose-6-Phosphate, read-out: MIC) was > 20 µg/mL and the MIC [5, 9] was >20 µg/mL. The MIC ([6]; ATCC25922, checkerboard, partner agent 0 μg/mL, 25 μg/mL glucose-6-phosphate, read-out: MIC alone) was 1.25 µg/mL, the “maximum drop of E. coli MIC when co-administered” value [6] was 4 fold and the MIC [7, 9] was 5 µg/mL. It also gave an MIC ([7]; Pseudomonas aeruginosa, ATCC27853, CAHM media without Glucose-6-Phosphate, read-out: MIC) of 5 µg/mL.
